Activity calls are given as the source filed them.
Legend:
Cytochrome P450 3A4 = Cytochrome P450 3A4 (Homo sapiens, UniProt P08684);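 note: CYP3A4 tested as one member of a cytochrome P450 panel screen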
[1] = molecular target: DNA damage-inducible transcript 3 protein (Mus musculus, UniProt P35639); format: functional, Cricetulus griseus
Protein skinhead-1 = molecular target: T1, Protein skinhead-1 (Caenorhabditis elegans, UniProt P34707); format: functional
T1 sequence (P34707 whole entry): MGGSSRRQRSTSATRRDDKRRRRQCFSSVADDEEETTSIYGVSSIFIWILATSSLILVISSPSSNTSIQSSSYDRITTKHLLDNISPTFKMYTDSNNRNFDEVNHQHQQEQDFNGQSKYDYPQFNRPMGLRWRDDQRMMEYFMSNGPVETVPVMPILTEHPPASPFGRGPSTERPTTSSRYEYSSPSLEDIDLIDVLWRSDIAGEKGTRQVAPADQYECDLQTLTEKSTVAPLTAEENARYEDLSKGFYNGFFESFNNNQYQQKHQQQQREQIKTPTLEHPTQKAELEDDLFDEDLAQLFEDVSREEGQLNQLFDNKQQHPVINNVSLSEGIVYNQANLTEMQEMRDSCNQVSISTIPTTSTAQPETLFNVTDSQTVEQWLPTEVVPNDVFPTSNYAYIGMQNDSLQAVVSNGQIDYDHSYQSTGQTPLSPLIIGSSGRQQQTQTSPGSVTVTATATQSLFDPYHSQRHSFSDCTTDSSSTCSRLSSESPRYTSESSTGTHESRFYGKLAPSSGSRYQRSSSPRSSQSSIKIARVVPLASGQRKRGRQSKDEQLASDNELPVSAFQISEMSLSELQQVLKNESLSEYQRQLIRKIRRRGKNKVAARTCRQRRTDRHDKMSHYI

[2] = growth suppression of PTEN-null colon cells, dose response, cell-based, HCT116 PTEN knockout (AID 1047); format: functional;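 note: HCT116 colon tumor cells with PTEN knocked out; cells exposed to compound for 60 hours before readout; potency for loss of cell viability measured by luminescence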
[3] = growth suppression of beta-catenin-knockout colon cells, dose response, cell-based, HCT116, human colon tumor (AID 1045); format: functional;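 note: HCT116 colon tumor cells with beta catenin knocked out; cells exposed to compound for 60 hours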
[4] = molecular target: Dual specificity tyrosine-phosphorylation-regulated kinase 1A (Rattus norvegicus, UniProt Q63470); format: biochemical, Homo sapiens
[5] = molecular target: T2, DNA repair and recombination protein RAD54-like (Homo sapiens, UniProt Q92698); test: inhibitors of human RAD54 branch migration, confirmation, biochemical, fluorescence, cherry-picked samples, dose series (AID 651657); format: functional
T2 sequence (Q92698 whole entry): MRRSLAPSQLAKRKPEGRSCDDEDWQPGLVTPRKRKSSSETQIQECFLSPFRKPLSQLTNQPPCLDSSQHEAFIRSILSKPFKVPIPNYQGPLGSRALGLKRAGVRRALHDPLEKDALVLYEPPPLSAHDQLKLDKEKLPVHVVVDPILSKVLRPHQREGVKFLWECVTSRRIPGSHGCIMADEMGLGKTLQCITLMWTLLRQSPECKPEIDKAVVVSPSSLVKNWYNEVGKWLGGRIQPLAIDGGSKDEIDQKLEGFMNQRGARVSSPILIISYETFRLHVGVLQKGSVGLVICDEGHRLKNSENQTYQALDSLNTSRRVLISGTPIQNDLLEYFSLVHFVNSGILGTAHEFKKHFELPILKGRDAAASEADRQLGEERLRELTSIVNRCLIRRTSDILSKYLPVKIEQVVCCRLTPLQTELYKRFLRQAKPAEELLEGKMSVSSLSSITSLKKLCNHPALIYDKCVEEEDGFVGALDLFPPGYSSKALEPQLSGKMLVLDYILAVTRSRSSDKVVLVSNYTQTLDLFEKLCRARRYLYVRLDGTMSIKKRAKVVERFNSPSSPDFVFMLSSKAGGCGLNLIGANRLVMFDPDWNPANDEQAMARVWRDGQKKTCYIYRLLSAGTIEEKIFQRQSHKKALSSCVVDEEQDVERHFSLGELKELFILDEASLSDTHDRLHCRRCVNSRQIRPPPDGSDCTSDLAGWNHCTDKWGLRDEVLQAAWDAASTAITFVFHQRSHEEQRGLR

HEK293 [6] = test: inhibitors of LMP1-driven NF-kB reporter, dose response, cell-based, HEK293, luciferase, cherry-pick (AID 588343); format: functional; details: Homo sapiens
HEK293 [7] = test: NOD1 signaling inhibitors, primary screen, cell-based, luminescence, uHTS (AID 1578); format: functional; details: Homo sapiens
HEK293 [8] = test: cells; format: functional, cell-based; details: Homo sapiens
HEK293 [9] = test: cells; format: functional, cell-based; details: Homo sapiens; remark: listed apart in the source
[10] = molecular target: Nucleotide-binding oligomerization domain-containing protein 2 (Homo sapiens, UniProt Q9HC29); test: NOD2 signaling inhibitors, cell-based, luminescence, uHTS, HEK293 (AID 1566); format: functional
Chain of Nucleotide-binding oligomerization domain-containing protein 2 (Q9HC29 whole entry, the tested form may be a part): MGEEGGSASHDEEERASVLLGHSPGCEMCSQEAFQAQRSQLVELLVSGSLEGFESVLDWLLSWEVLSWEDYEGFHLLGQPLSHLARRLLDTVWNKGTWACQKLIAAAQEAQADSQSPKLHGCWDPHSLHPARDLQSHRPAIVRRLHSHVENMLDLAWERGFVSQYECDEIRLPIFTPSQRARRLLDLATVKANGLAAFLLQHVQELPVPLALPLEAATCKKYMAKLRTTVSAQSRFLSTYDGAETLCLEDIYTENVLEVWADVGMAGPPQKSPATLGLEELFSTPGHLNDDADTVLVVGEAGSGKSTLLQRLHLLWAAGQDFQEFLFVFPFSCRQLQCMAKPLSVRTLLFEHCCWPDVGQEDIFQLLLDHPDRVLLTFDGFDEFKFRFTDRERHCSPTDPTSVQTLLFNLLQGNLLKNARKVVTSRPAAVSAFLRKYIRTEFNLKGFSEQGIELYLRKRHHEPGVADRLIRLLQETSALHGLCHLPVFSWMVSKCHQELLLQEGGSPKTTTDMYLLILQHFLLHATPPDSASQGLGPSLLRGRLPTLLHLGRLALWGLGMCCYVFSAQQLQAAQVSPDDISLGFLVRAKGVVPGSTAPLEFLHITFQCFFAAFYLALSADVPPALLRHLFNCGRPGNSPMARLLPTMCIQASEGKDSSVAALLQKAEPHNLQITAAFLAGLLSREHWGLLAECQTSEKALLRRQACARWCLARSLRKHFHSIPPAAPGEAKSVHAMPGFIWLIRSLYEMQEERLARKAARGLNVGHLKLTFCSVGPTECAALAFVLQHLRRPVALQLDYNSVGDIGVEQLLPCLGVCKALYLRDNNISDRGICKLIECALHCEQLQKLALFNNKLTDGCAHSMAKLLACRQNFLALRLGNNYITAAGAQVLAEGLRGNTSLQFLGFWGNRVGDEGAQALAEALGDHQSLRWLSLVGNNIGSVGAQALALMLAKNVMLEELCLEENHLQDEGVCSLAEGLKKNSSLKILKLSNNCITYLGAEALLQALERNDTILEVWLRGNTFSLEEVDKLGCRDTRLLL

HEK293 [11] = test: NOD2 signaling inhibitors in MDP-stimulated cells, cell-based, uHTS, luminescence (AID 2001); format: functional; details: Homo sapiens
HEK293 [12] = test: cells; format: functional, cell-based; details: Homo sapiens; remark: listed apart in the source
Cytochrome P450 1A2 = molecular target: T3, Cytochrome P450 1A2 (Homo sapiens, UniProt P05177);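 note: PubChem cytochrome P450 panel assay, CYP1A2 panel member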
T3 sequence (P05177 whole entry): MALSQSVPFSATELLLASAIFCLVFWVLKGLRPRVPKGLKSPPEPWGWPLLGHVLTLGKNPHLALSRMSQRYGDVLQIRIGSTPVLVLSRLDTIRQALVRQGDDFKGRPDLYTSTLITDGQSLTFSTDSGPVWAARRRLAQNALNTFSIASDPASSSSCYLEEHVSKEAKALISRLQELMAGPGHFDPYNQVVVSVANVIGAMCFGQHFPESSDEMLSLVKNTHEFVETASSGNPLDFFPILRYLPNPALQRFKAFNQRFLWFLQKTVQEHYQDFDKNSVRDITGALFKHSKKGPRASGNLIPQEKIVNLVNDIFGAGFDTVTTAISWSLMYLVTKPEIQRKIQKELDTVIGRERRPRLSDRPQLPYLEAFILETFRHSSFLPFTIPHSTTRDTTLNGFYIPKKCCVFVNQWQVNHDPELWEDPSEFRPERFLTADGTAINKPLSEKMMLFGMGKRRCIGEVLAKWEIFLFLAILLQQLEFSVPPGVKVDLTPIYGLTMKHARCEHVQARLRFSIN

[13] = NIH-3T3 fibroblast cytotoxicity, dose response, cytotoxicity control, cell-based, fluorescence, Alamar Blue, secondary assay (AID 2327); format: functional;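 note: NIH-3T3 mouse fibroblasts cultured with fluconazole at 8 µg/mL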
BJ [14] = test: cytotoxicity toward BJ-TERT fibroblasts, dose response, cell-based, RAS-independent, luminescence (AID 1933); format: functional; details: Homo sapiens
cells [15] = format: functional, cell-based
BJ [16] = test: cells; format: functional, cell-based; details: Homo sapiens
[17] = C. albicans growth with fluconazole, confirmation, fluorescence, retest (AID 2467); format: functional, cell-based
cells [18] = format: functional, cell-based; remark: listed apart in the source
BJ [19] = test: cytotoxicity toward BJ-TERT-LT-ST fibroblasts, dose response, cell-based, RAS-independent, luminescence (AID 1935); format: functional; details: Homo sapiens;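 note: BJ fibroblasts immortalized with TERT plus LT and ST oncogenes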
[20] = cytotoxicity toward DRD oncogenic fibroblasts, dose response, cell-based, non-viral oncogenic, luminescence (AID 1934); format: functional; details: Homo sapiens
[21] = molecular target: T4, Microphthalmia-associated transcription factor (Homo sapiens, UniProt O75030); test: TRPM1 promoter luciferase signal decrease, dose response, MITF inhibitor project, cell-based, SK-MEL-5, cherry-picked, set 3 (AID 493073); format: functional
T4 sequence (O75030 whole entry): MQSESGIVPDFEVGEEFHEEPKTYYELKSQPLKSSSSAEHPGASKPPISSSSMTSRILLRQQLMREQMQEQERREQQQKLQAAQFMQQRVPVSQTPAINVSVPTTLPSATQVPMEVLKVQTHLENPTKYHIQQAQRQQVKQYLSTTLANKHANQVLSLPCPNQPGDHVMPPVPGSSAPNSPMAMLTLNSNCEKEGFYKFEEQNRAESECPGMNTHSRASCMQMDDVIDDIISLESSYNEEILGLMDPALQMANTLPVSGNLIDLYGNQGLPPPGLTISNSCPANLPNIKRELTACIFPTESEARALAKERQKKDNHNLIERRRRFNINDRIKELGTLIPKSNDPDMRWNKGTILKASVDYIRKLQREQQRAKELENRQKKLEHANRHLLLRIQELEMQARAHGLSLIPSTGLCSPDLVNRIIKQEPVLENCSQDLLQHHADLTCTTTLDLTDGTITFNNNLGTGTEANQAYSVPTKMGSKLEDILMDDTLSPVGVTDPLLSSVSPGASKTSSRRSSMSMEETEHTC

INS1 = test: beta cell apoptosis inhibitors, cytokine rescue, dose response, luminescence, retest (AID 449756); format: functional, cell-based; details: Rattus norvegicus;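 note: cell death triggered by IL-1 beta plus TNF-alpha plus IFN-gamma mixture; protective hits raise ATP signal compared with cytokine alone wells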

Chain of DNA damage-inducible transcript 3 protein (P35639 whole entry): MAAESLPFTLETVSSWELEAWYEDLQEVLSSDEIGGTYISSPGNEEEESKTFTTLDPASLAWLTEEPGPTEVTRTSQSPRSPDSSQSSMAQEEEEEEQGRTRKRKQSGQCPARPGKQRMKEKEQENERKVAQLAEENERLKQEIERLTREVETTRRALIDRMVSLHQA
Chain of Cytochrome P450 3A4 (P08684 whole entry): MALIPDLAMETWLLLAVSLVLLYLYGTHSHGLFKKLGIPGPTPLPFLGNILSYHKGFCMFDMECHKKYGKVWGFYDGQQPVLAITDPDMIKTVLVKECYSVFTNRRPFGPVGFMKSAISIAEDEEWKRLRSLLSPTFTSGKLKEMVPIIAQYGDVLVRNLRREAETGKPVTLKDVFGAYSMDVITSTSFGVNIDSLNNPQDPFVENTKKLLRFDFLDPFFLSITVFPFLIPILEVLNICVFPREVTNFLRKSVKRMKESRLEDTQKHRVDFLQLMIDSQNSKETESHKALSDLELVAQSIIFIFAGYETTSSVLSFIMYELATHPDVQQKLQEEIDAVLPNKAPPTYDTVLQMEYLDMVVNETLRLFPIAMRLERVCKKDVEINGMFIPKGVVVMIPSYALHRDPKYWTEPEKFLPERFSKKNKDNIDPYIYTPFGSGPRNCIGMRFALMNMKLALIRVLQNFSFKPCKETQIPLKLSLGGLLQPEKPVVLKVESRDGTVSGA

Structure (SMILES): C#C[C@@]1(OC(C)=O)CC[C@@H]2[C@@H]3CCC4=C[C@@H](OC(C)=O)CC[C@H]4[C@H]3CC[C@]21C
- AC50 (Cytochrome P450 3A4): inconclusive

Structure (SMILES): COC(=O)CN1C(=S)N(Cc2ccccc2)C(=O)C1CC(=O)Nc1ccc(Br)cc1 (stereo not drawn)
- Absolute IC50 (CHOP) [1]: 10 µM
- IC50 (Protein skinhead-1): > 100 µM (inactive)

Structure (SMILES): O=C(c1cnccn1)N1CCC2(CC1)CN(c1ccccn1)C2
- AC50 (Cytochrome P450 3A4): inconclusive

Structure (SMILES): CSc1nc(O)c2cnn(-c3ccc(C)c(C)c3)c2n1
- EC50 [2]: 26.2 µM (active)
- EC50 [3]: 27.6 µM (active)
- Absolute IC50 (CHOP) [1]: 10 µM

Structure (SMILES): COc1ccc(/C=C2\SC(=N)NC2=O)cc1
- AC50 [4]: 0.038 µM (active)

Structure (SMILES): O=C1c2cccc3cccc(c23)C(=O)N1CCCn1ccnc1
- AC50 [5]: 20.2 µM (active)

Structure (SMILES): CC1(C)Cc2nc3sc4c(SCC(=O)O)ncnc4c3cc2CO1
- AC50 (HEK293 [6]): 4.58 µM (active)
- AC50 [4]: 2.6 µM (active)

Structure (SMILES): CCN(C(=O)c1cnc(N2CCN(c3ncccn3)CC2)c2ccccc12)c1cccc(Cl)c1
- EC50 (HEK293 [7]): 5.39 µM (active)
- IC50 (HEK293 [8]): 3.5 µM (active)
- IC50 (HEK293 [9]): 8.34 µM (active)
- EC50 [10]: 7.19 µM (active)
- IC50 (HEK293 [11]): 4.17 µM (active)
- IC50 (HEK293 [12]): > 20 µM (inactive)
- AC50 (Cytochrome P450 1A2): 15.8 µM (inconclusive)

Structure (SMILES): COc1ccc(O)c(/C=N/NC(=O)c2ccc(CSc3nc(C)cc(C)n3)cc2)c1
- EC50 [13]: > 150 µM (inactive)
- EC50 (BJ [14]): 20.6 µM (active)
- EC50 (cells [15]): 24 µM (active)
- EC50 (BJ [16]): 17.5 µM (inconclusive)
- EC50 [17]: > 38 µM (not active)
- EC50 (cells [18]): > 350 µM (not active)
- EC50 (BJ [19]): > 75 µM (not active)
- EC50 [20]: 27.7 µM (active)
- AC50 [21]: 9.31 µM (active)
- AC50 (INS1): 4.6 µM (active)

Reference: ChEMBL document CHEMBL1201862, “PubChem BioAssay data set” (2004)
